Patent US20260001893A1, “SMALL MOLECULE MODULATORS OF STAT6” (Gilead Sciences, Inc., priority 2024, published 2026)

These compounds were tested on Eotaxin-3 (CCL26) release in human whole blood stimulated with IL-4 (assay: Human whole blood eotaxin-3 assay (IL-4 stimulated eotaxin-3 release)). Conditions: Homo sapiens, 48 h, human whole blood stimulated with recombinant human IL-4, 48 h; given for test compounds with <80% Emax; geometric mean.
Assay type: cell-based
Method: Human Whole Blood Eotaxin-3 Assay
This was a human whole blood assay using recombinant human Interleukin 4 to stimulate the blood and measuring the ability of the test compounds to inhibit eotaxin-3 release. The biological activities of the test compounds have been tested in human whole blood stimulated with IL-4 measuring Eotaxin-3 release. The test compounds were added to 384 well clear flat-bottom plate in a 4-fold serial dilution in triplicates using a liquid handler. Human whole blood stabilized in lithium-heparin tubes was added in a volume of 65 μL per well, resulting in a final DMSO concentration of 0.5%. The plate is incubated for 2 h at 37° C. under 5% CO2/95% air. Subsequently, 5 μL of recombinant human IL-4 (R&D Systems, cat #204-ILB) was added to the wells to a final concentration of […]. The plate was incubated for 48 h at 37° C. under 5% CO2/95% air. The plate was spun down for 10 minutes at 500×g and 20 μL supernatant was harvested and transferred to a 384 well v-bottom plate using a liquid handler and stored at −20° C. until further analysis. 10 μL supernatant was used to measure the level of Eotaxin-3 (CCL26) using Human Eotaxin-3 MSD kit from Mesocsale (Cat #K251UEK-4). The assay was performed according to the manufacture instructions.
The data from the human whole blood eotaxin-3 assay is shown below for Examples 1ab3, 1ab6, 1d23, and 1d4 (where the effect in % is plotted against the test concentration in M on a log-scale).

| SMILES | Emax |
| --- | --- |
| [2H]C([2H])([2H])N(C(=O)c1ccc(C2CCN([C@@H](C)c3cc4c(-n5c(F)cc(NC)cc5=O)ccnc4n3C)CC2)cc1)C([2H])([2H])[2H] [Example 1m97, 4-(1-((1S)-1-(4-(6-fluoro-4-(methylamino)-2-oxopyridin-1 (2H)-yl)-1-methyl-1H-pyrrolo[2,3-b]pyridin-2-yl)ethyl)piperidin-4-yl)-N,N-bis(methyl-d3)benzamide] | 10 to 20% |

Same assay, conditions: Homo sapiens, 48 h, human whole blood stimulated with recombinant human IL-4, 48 h; inhibition of eotaxin-3 release; given for test compounds with >80% Emax; geometric mean

| EC50 | SMILES |
| --- | --- |
| 128 nM | CNc1ccn(-c2ccnc3[nH]c(C(C)N4CC=C(c5c(C)cc(C(=O)N(C)C)cc5F)CC4)cc23)c(=O)c1 (stereo not drawn) [Example 1m85, 3-fluoro-N,N,5-trimethyl-4-(1-(1-(4-(4-(methylamino)-2-oxopyridin-1 (2H)-yl)-1H-pyrrolo[2,3-b]pyridin-2-yl)ethyl)-1,2,3,6-tetrahydropyridin-4-yl)benzamide] |
| 672 nM | Cc1cc(C(=O)N(C)C)ccc1C1=CCN([C@H](C)c2cc3c(-n4ccc(N)c(F)c4=O)ccnc3n2C)CC1 [Example 1m86, (R)-4-(1-(1-(4-(4-amino-3-fluoro-2-oxopyridin-1 (2H)-yl)-1-methyl-1H-pyrrolo[2,3-b]pyridin-2-yl)ethyl)-1,2,3,6-tetrahydropyridin-4-yl)-N,N,3-trimethylbenzamide] |
| 4.55 nM | Cc1cc(C(=O)N(C)C)cc(F)c1C1=CCN(Cc2cc3c(-n4ccc(N)c(C)c4=O)ccnc3n2C)CC1 [Example 1m87, 4-(1-((4-(4-amino-3-methyl-2-oxopyridin-1 (2H)-yl)-1-methyl-1H-pyrrolo[2,3-b]pyridin-2-yl)methyl)-1,2,3,6-tetrahydropyridin-4-yl)-3-fluoro-N,N,5-trimethylbenzamide] |
| 4.8 nM | CNc1ccn(-c2ccnc3c2cc(CN2CC=C(c4c(C)cc(C(=O)N(C)C)cc4F)CC2)n3C)c(=O)n1 [Example 1m88, 3-fluoro-N,N,5-trimethyl-4-(1-((1-methyl-4-(4-(methylamino)-2-oxopyrimidin-1 (2H)-yl)-1H-pyrrolo[2,3-b]pyridin-2-yl)methyl)-1,2,3,6-tetrahydropyridin-4-yl)benzamide] |
| 5.87 nM | [2H]C([2H])([2H])N(C(=O)c1ccc(C2CCN([C@@H](C)c3cc4c(-n5ccc6[nH]ncc6c5=O)ccnc4n3C)CC2)cc1)C([2H])([2H])[2H] [Example 1m89, (S)—N,N-bis(methyl-d3)-4-(1-(1-(1-methyl-4-(4-oxo-1,4-dihydro-5H-pyrazolo[4,3-c]pyridin-5-yl)-1H-pyrrolo[2,3-b]pyridin-2-yl)ethyl)piperidin-4-yl)benzamide] |
| 28.8 nM | CNc1ccn(-c2ccnc3c2cc(CN2CC=C(c4c(F)cc(C(=O)N(C)C)cc4F)CC2)n3C)c(=O)c1 [Example 1m90, 3,5-difluoro-N,N-dimethyl-4-(1-((1-methyl-4-(4-(methylamino)-2-oxopyridin-1 (2H)-yl)-1H-pyrrolo[2,3-b]pyridin-2-yl)methyl)-1,2,3,6-tetrahydropyridin-4-yl)benzamide] |
| 45.5 nM | CNc1ccn(-c2ccnc3c2cc(CN2CCC(c4c(F)cc(C(=O)N(C)C)cc4F)CC2)n3C)c(=O)c1 [Example 1m91, 3,5-difluoro-N,N-dimethyl-4-(1-((1-methyl-4-(4-(methylamino)-2-oxopyridin-1 (2H)-yl)-1H-pyrrolo[2,3-b]pyridin-2-yl)methyl)piperidin-4-yl)benzamide] |
| 3.76 nM | [2H]C([2H])([2H])N(C(=O)c1cc(C)c(C2=CCN([C@@H](C)c3cc4c(-n5ccc(N)cc5=O)ccnc4n3C)CC2)c(F)c1)C([2H])([2H])[2H] [Example 1m93, (S)-4-(1-(1-(4-(4-amino-2-oxopyridin-1 (2H)-yl)-1-methyl-1H-pyrrolo[2,3-b]pyridin-2-yl)ethyl)-1,2,3,6-tetrahydropyridin-4-yl)-3-fluoro-5-methyl-N,N-bis(methyl-d3)benzamide] |
| 6.65 nM | [2H]C([2H])([2H])N(C(=O)c1cc(C)c(C2=CCN(Cc3cc4c(-n5ccc(N)c(C)c5=O)ccnc4n3C)CC2)c(F)c1)C([2H])([2H])[2H] [Example 1m94, 4-(1-((4-(4-amino-3-methyl-2-oxopyridin-1 (2H)-yl)-1-methyl-1H-pyrrolo[2,3-b]-pyridin-2-yl)methyl)-1,2,3,6-tetrahydropyridin-4-yl)-3-fluoro-5-methyl-N,N-bis(methyl-d3)benzamide] |
| 44.6 nM | CNc1ccn(-c2ccnc3c2cc(CN2CCC(c4c(F)cc(C(=O)N(C)C)cc4F)CC2)n3C)c(=O)n1 [Example 1m95, 3,5-difluoro-N,N-dimethyl-4-(1-((1-methyl-4-(4-(methylamino)-2-oxopyrimidin-1 (2H)-yl)-1H-pyrrolo[2,3-b]pyridin-2-yl)methyl)piperidin-4-yl)benzamide] |
| 3.52 nM | [2H]C([2H])([2H])N(C(=O)c1cc(C)c(C2=CCN(Cc3cc4c(-n5ccc(NC)nc5=O)ccnc4n3C)CC2)c(F)c1)C([2H])([2H])[2H] [Example 1m96, 3-fluoro-5-methyl-N,N-bis(methyl-d3)-4-(1-((1-methyl-4-(4-(methylamino)-2-oxopyrimidin-1 (2H)-yl)-1H-pyrrolo[2,3-b]pyridin-2-yl)methyl)-1,2,3,6-tetrahydropyridin-4-yl)benzamide] |
| 22.4 nM | [2H]C([2H])([2H])N(C(=O)c1cc(F)c(C2=CCN(Cc3cc4c(-n5ccc(NC)cc5=O)ccnc4n3C)CC2)c(F)c1)C([2H])([2H])[2H] [Example 1m98, 3,5-difluoro-N,N-bis(methyl-d3)-4-(1-((1-methyl-4-(4-(methylamino)-2-oxopyridin-1 (2H)-yl)-1H-pyrrolo[2,3-b]pyridin-2-yl)methyl)-1,2,3,6-tetrahydropyridin-4-yl)benzamide] |
| 3.02 nM | Cc1cc(C(=O)N(C)C)cc(F)c1C1=CCN(Cc2cc3c(-n4ccc5c(c4=O)CCN5)ccnc3n2C)CC1 [Example 1m101, 3-fluoro-N,N,5-trimethyl-4-(1-((1-methyl-4-(4-oxo-1,2,3,4-tetrahydro-5H-pyrrolo[3,2-c]pyridin-5-yl)-1H-pyrrolo[2,3-b]pyridin-2-yl)methyl)-1,2,3,6-tetrahydropyridin-4-yl)benzamide] |
| 23.4 nM | [2H]C([2H])([2H])N(C(=O)c1cc(F)c(C2CCN(Cc3cc4c(-n5ccc(NC)cc5=O)ccnc4n3C)CC2)c(F)c1)C([2H])([2H])[2H] [Example 1m102, 3,5-difluoro-N,N-bis(methyl-d3)-4-(1-((1-methyl-4-(4-(methylamino)-2-oxopyridin-1 (2H)-yl)-1H-pyrrolo[2,3-b]pyridin-2-yl)methyl)piperidin-4-yl)benzamide] |
| 27.1 nM | Cc1cc(C(=O)N(C)C)cc(F)c1C1CCN(Cc2cc3c(-n4ccc5c(c4=O)CCN5)ccnc3n2C)CC1 [Example 1m103, 3-fluoro-N,N,5-trimethyl-4-(1-((1-methyl-4-(4-oxo-1,2,3,4-tetrahydro-5H-pyrrolo[3,2-c]pyridin-5-yl)-1H-pyrrolo[2,3-b]pyridin-2-yl)methyl)piperidin-4-yl)benzamide] |
| 156 nM | CNc1ccn(-c2ccnc3c2cc(CN2CC=C(c4c(C)cc(C(=O)N(C)C)cc4F)CC2)n3C)c(=O)c1C [Example 1m104, 3-fluoro-N,N,5-trimethyl-4-(1-((1-methyl-4-(3-methyl-4-(methylamino)-2-oxopyridin-1 (2H)-yl)-1H-pyrrolo[2,3-b]pyridin-2-yl)methyl)-1,2,3,6-tetrahydropyridin-4-yl)benzamide] |
| 2.96 nM | CNc1ccn(-c2ccnc3c2cc([C@H](C)N2CC=C(c4c(C)cc(C(=O)N(C)C)cc4F)CC2)n3C)c(=O)n1 [Example 1m106, (S)-3-fluoro-N,N,5-trimethyl-4-(1-(1-(1-methyl-4-(4-(methylamino)-2-oxopyrimidin-1 (2H)-yl)-1H-pyrrolo[2,3-b]pyridin-2-yl)ethyl)-1,2,3,6-tetrahydropyridin-4-yl)benzamide] |
| 24.2 nM | CN(C)C(=O)c1cc(F)c(C2=CCN(Cc3cc4c(-n5ccc6c(c5=O)CCN6)ccnc4n3C)CC2)c(F)c1 [Example 1m107, 3,5-difluoro-N,N-dimethyl-4-(1-((1-methyl-4-(4-oxo-1,2,3,4-tetrahydro-5H-pyrrolo[3,2-c]pyridin-5-yl)-1H-pyrrolo[2,3-b]pyridin-2-yl)methyl)-1,2,3,6-tetrahydropyridin-4-yl)benzamide] |
| 317 nM | CNc1ccn(-c2ccnc3c2cc([C@@H](C)N2CCC(c4c(C)cc(C(=O)N(C)C)cc4F)CC2)n3C)c(=O)c1 [Example 1m108, (R)-3-fluoro-N,N,5-trimethyl-4-(1-(1-(1-methyl-4-(4-(methylamino)-2-oxopyridin-1 (2H)-yl)-1H-pyrrolo[2,3-b]pyridin-2-yl)ethyl)piperidin-4-yl)benzamide] |
| 10.8 nM | CNc1ccn(-c2ccnc3c2cc([C@H](C)N2CCC(c4c(C)cc(C(=O)N(C)C)cc4F)CC2)n3C)c(=O)c1 [Example 1m109, (S)-3-fluoro-N,N,5-trimethyl-4-(1-(1-(1-methyl-4-(4-(methylamino)-2-oxopyridin-1 (2H)-yl)-1H-pyrrolo[2,3-b]pyridin-2-yl)ethyl)piperidin-4-yl)benzamide] |
